From ChEMBL document CHEMBL4376815, “The Development Process for Discovery and Clinical Advancement of Modern Antimalarials” (J Med Chem, 2019)

Key:
[1] = Volume of distribution in dog; format: ADME, Canis lupus familiaris; conditions: in vivo
[2] = AUC in human at 5 to 120 mg,po in fast condition; format: ADME; conditions: in vivo
Plasmodium falciparum [3] = experiment: Antimalarial activity against stage 5 Plasmodium falciparum assessed as reduction in oocyst formation in mosquito midgut at 1 uM after 24 hrs by standard membrane-feeding assay relative to control; format: functional; parameters: scale not given: the % may be the effect or the level left
[4] = Half life in monkey; format: ADME, Macaca mulatta; conditions: rhesus monkey, in vivo
[5] = molecular target: Voltage-dependent L-type calcium channel subunit alpha-1C (Homo sapiens, UniProt Q13936); experiment: Inhibition of Cav1.2 (unknown origin)
[6] = Half life in human at 5 to 120 mg,po in fast condition; format: ADME; conditions: in vivo
Plasmodium falciparum [7] = experiment: Antimalarial activity Plasmodium falciparum infected in po dosed SCID mouse assessed as reduction in parasite growth administered daily for 4 consecutive days and measured on day 7 by flow cytometric analysis; format: functional; conditions: 168 h
Plasmodium falciparum [8] = experiment: Ex-vivo antimalarial activity against Plasmodium falciparum serum derived from 40 mg, po treated human after 144 hrs; format: functional, organism-based
[9] = Plasma clearance in rat; format: ADME
[10] = Plasma clearance in dog; format: ADME, Canis lupus familiaris
[11] = Volume of distribution in mouse; format: ADME, organism-based; conditions: in vivo
[12] = Half life in human at 80 to 100 mg; format: ADME
Plasmodium falciparum [13] = experiment: Antimalarial activity against late stage Plasmodium falciparum gametocytes assessed as reduction in gametogenesis exflagellation after 24 hrs; format: functional, organism-based
[14] = Half life in dog; format: ADME, Canis lupus familiaris; conditions: in vivo
Plasmodium cynomolgi [15] = experiment: Antimalarial activity against hypnozoites stage Plasmodium cynomolgi infected in primary rhesus monkey hepatocytes; format: functional, organism-based
[16] = Inhibition of Plasmodium vivax PI4K
Plasmodium cynomolgi [17] = experiment: Antimalarial activity against schizont stage Plasmodium cynomolgi infected in primary rhesus monkey hepatocytes; format: functional, organism-based
[18] = molecular target: Sodium channel protein type 5 subunit alpha (Homo sapiens, UniProt Q14524); experiment: Inhibition of Nav1.5 (unknown origin)
[19] = Oral bioavailability in dog; format: ADME, organism-based, Canis lupus familiaris; conditions: in vivo
[20] = Half life in human at 5 to 120 mg,po; format: ADME; conditions: in vivo
[21] = AUC in human at 5 to 120 mg,po in fed condition; format: ADME; conditions: in vivo
[22] = Half life in rat; format: ADME; conditions: in vivo
[23] = Half life in human at 5 to 120 mg,po in fed condition; format: ADME; conditions: in vivo
Plasmodium falciparum [24] = experiment: Antimalarial activity against late stage Plasmodium falciparum gametocytes by luciferase reporter gene assay; format: functional, organism-based
[25] = Volume of distribution in rat; format: ADME; conditions: in vivo
Plasmodium falciparum [26] = experiment: Antimalarial activity against early stage Plasmodium falciparum gametocytes by luciferase reporter gene assay; format: functional, organism-based
[27] = AUC (0 to infinity) in human at 5 to 120 mg,po; format: ADME; conditions: in vivo
Plasmodium berghei = experiment: Antimalarial activity against Plasmodium berghei infected in mouse assessed reduction in parasitemia; format: functional; parameters: scale not given: the % may be the effect or the level left
Plasmodium falciparum [28] = experiment: Antimalarial activity against stage 5 Plasmodium falciparum assessed as reduction in oocyst formation in mosquito midgut pretreated 24 hrs before feeding by standard membrane-feeding assay; format: functional, organism-based
[29] = Oral bioavailability in monkey; format: ADME, organism-based, Macaca mulatta; conditions: rhesus monkey, in vivo
[30] = Volume of distribution in human at 80 to 100 mg; format: ADME
[31] = Plasma clearance in human at 80 to 100 mg; format: ADME
Plasmodium cynomolgi [32] = experiment: Antimalarial activity against hypnozoites stage Plasmodium cynomolgi infected in primary rhesus monkey hepatocytes measured on day 5; format: functional, organism-based; conditions: 120 h
[33] = Plasma clearance in mouse; format: ADME, organism-based
[34] = Half life in mouse; format: ADME, organism-based; conditions: in vivo

Sequence of Voltage-dependent L-type calcium channel subunit alpha-1C (Q13936 whole entry): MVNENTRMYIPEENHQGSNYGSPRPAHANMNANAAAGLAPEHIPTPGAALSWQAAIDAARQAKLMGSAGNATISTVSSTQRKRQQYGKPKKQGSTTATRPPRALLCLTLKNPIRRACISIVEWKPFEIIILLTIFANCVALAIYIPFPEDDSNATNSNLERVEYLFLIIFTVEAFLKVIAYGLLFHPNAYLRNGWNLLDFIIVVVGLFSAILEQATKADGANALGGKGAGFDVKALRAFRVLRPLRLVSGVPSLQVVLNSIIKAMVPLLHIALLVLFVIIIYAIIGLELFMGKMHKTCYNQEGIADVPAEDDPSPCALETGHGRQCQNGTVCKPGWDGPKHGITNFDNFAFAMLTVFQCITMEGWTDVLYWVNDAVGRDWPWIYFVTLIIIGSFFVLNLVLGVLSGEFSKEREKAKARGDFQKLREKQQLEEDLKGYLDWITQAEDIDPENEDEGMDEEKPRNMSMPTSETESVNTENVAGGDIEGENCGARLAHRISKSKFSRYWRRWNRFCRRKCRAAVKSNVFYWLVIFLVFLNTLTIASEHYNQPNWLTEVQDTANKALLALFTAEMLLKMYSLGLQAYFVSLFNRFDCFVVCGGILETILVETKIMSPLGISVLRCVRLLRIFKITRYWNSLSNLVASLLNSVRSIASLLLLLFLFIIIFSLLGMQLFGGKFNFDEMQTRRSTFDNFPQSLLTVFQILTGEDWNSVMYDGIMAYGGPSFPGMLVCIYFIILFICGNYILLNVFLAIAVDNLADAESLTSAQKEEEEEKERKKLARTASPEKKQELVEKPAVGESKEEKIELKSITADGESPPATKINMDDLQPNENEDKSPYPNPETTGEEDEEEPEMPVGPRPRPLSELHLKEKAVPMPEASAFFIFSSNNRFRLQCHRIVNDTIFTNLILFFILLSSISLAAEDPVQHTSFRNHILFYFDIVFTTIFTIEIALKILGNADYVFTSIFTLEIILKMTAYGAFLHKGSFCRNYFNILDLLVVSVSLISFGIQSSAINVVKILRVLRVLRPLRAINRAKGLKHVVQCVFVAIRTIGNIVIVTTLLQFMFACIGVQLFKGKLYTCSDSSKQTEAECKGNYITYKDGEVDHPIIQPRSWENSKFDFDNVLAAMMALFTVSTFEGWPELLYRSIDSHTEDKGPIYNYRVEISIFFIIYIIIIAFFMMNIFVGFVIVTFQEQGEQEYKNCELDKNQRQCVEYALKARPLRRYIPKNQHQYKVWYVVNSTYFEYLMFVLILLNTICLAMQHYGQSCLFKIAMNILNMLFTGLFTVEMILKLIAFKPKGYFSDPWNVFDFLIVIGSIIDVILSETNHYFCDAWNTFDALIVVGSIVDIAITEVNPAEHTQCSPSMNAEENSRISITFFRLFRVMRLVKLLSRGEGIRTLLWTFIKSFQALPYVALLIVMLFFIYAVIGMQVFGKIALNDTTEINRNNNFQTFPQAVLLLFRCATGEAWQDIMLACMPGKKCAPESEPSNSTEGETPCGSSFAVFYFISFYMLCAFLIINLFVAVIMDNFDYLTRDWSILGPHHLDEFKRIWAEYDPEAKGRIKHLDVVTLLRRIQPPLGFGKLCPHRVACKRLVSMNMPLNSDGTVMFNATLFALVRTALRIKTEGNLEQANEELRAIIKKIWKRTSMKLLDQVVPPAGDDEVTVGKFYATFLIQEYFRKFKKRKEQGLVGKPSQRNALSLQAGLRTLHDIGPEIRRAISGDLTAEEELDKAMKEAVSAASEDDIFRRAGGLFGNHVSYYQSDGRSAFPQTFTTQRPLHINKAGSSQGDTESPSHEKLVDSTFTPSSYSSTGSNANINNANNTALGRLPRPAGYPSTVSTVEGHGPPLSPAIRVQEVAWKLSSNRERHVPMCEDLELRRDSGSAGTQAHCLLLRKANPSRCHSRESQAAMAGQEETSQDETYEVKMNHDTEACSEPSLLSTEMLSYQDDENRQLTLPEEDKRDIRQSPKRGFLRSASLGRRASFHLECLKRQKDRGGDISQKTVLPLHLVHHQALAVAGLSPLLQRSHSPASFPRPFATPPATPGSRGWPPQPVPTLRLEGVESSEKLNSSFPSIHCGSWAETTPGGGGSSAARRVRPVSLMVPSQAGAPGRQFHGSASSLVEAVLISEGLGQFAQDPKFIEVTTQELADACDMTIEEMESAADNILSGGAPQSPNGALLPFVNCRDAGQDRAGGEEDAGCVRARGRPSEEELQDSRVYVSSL
Sequence of Sodium channel protein type 5 subunit alpha (Q14524 whole entry): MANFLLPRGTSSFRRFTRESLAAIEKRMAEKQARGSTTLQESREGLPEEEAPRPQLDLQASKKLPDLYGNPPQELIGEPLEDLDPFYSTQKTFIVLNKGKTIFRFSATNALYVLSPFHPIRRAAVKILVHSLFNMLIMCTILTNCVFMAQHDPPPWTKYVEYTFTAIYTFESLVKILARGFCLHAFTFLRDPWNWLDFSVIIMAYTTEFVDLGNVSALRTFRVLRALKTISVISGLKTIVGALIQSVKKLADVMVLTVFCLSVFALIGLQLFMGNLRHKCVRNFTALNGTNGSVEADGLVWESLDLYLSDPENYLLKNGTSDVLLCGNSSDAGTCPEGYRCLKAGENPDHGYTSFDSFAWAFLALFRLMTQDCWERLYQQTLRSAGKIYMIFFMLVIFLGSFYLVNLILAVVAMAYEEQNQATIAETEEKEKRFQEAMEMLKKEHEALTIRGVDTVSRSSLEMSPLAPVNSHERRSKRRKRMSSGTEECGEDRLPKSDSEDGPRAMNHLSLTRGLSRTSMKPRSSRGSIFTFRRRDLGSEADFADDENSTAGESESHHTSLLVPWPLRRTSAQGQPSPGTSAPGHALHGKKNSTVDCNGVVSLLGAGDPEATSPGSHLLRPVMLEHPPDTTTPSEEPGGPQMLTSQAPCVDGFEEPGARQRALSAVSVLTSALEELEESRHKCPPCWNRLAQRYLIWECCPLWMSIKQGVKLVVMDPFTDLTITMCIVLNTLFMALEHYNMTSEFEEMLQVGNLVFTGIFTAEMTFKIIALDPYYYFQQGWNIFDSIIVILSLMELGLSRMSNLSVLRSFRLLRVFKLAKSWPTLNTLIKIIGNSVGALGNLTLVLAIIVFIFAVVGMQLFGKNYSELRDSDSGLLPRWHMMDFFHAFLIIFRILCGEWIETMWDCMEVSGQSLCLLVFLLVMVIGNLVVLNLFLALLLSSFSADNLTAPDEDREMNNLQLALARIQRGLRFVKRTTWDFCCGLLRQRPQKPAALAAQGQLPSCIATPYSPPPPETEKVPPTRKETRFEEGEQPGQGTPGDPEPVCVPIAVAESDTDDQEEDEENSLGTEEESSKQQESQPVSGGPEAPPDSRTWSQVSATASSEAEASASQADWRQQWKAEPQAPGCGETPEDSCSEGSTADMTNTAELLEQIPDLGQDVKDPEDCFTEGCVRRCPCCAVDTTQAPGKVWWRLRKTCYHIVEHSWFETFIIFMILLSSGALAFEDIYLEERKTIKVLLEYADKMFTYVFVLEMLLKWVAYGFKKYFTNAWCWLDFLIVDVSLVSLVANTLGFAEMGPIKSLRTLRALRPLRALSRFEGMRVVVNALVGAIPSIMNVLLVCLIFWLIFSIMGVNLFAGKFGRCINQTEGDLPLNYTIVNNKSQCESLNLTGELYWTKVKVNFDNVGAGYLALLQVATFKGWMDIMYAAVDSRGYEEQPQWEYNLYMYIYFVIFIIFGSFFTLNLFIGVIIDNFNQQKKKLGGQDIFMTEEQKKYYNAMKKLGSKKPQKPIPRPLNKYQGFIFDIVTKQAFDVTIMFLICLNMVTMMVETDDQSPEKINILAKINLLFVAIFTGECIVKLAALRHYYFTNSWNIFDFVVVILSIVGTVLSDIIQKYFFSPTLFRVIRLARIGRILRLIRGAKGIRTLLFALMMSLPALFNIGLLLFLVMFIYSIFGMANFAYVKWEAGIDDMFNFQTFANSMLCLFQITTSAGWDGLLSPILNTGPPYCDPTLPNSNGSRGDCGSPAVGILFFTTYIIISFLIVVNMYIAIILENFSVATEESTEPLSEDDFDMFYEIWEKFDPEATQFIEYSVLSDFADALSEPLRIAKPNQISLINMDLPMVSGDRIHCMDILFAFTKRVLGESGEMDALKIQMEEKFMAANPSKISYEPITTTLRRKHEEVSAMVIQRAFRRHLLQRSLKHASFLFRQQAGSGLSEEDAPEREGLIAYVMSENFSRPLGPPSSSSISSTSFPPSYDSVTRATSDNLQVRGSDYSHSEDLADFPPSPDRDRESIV

Q: Which results are given for `CS(=O)(=O)c1ccc(-c2cnc(N)c(-c3ccc(C(F)(F)F)nc3)c2)cc1` [MMV-048]?
A: Vd [1]: 1.3 to 3 L/kg; AUC [2]: 21000 ng·h/mL; Activity (Plasmodium falciparum [3]): >25%; half-life [4]: 56 h; IC50 [5]: > 10000 nM; half-life [6]: 193 h; ED90 (Plasmodium falciparum [7]): 0.57 mg/kg; ED99 (Plasmodium falciparum [7]): 1.1 mg/kg; EC50 (Plasmodium falciparum [8]): 24 nM; clearance [9]: 6.5 mL/min/kg; clearance [10]: 0.6 mL/min/kg; Vd [11]: 1.3 to 3 L/kg; half-life [12]: 90 h; EC50 (Plasmodium falciparum [13]): 90 nM; half-life [14]: 58 h; EC50 (Plasmodium cynomolgi [15]): 61 nM; IC50 [16]: 3.4 nM; EC50 (Plasmodium cynomolgi [17]): 64 nM; IC50 [18]: > 10000 nM; bioavailability [19]: 45%; half-life [20]: 163 to 252 h; AUC [21]: 29000 ng·h/mL; half-life [22]: 9.2 h; half-life [23]: 210 h; EC50 (Plasmodium falciparum [24]): 140 nM; Vd [25]: 1.3 to 3 L/kg; EC50 (Plasmodium falciparum [26]): 214 nM; AUC(0-inf) [27]: 2140 to 156000 ng·h/mL; Activity (Plasmodium berghei): 98 - 99.5%; EC50 (Plasmodium falciparum [28]): 111 nM; bioavailability [29]: 74%; Vd [30]: 2.8 L/kg; clearance [31]: 0.333 mL/min; EC50 (Plasmodium cynomolgi [32]): > 10000 nM; clearance [33]: 3 mL/min/kg; half-life [34]: 5.6 h
